What was measured:
[1] = pKa measurement by pH titration; type: physicochemical; settings: pH probe, titration of SM-AZO-PTX and SM-AZE-PTX
[2] = MTD dose stated for CPT comparators; settings: mouse, in vivo, intravenous
[3] = B6129SF1/J, mouse, in vivo, iv, 24 h
in vivo = settings: B6129SF1/J, mouse, iv
[4] = mouse, in vivo

C1CCCNCC1 [AZE, Azepane]
pKa [1]: ~6.98

C1CCCNCCC1 [AZO, Azocane]
pKa [1]: 5.75

CC[C@@]1(O)C(=O)OCc2c1cc1n(c2=O)Cc2cc3ccccc3nc2-1 [Free CPT, Camptothecin]
MTD [2]: 5 mg/kg

Nc1ccn([C@@H]2O[C@H](CO)[C@@H](O)C2(F)F)c(=O)n1 [GEM, gemcitabine]
Injected GEM dose (%), Tumor [3]: 0.21% | half-life (in vivo): 23.4 ± 3.6 min

Taxol
myelosuppression and neuropathy (sternums and dorsal root ganglia), in words [4]: severely damaged sternums and dorsal root ganglia tissues
